Active and inactive are the calls of the source. How the calls were made is not given here.
Test system: rodent lifetime carcinogenesis bioassay, tumor incidence TD50
Assay: chronic cancer bioassays in animals – CPDB, compiled studies (AID 1745844)

ClC(Cl)=C(Cl)Cl
TD50 (mouse, strain B6C3F1, females, by gavage, site: any site (literature study), lesion: several types, types named in the paper, dosed 78 weeks, study length 90 weeks): 98.1 mg/kg/day
TD50 (mouse, strain B6C3F1, females, by gavage, site: liver, lesion: hepatocellular adenoma + hepatocellular carcinoma + neoplastic nodule, dosed 78 weeks, study length 90 weeks): 75.6 mg/kg/day
TD50 (mouse, strain B6C3F1, females, by gavage, site: liver, lesion: hepatocellular carcinoma, dosed 78 weeks, study length 90 weeks): 75.6 mg/kg/day
TD50 (mouse, strain B6C3F1, females, by gavage, site: lung, lesion: alveolar/bronchiolar adenoma + alveolar/bronchiolar carcinoma, dosed 78 weeks, study length 90 weeks): 2950 mg/kg/day
TD50 (mouse, strain B6C3F1, females, inhaled, site: any site (literature study), lesion: several types, types named in the paper, dosed 103 weeks, study length 104 weeks): 211 mg/kg/day
TD50 (mouse, strain B6C3F1, females, inhaled, site: liver, lesion: hepatocellular adenoma + hepatocellular carcinoma + neoplastic nodule, dosed 103 weeks, study length 104 weeks): 188 mg/kg/day
TD50 (mouse, strain B6C3F1, females, inhaled, site: liver, lesion: hepatocellular adenoma + hepatocellular carcinoma, dosed 103 weeks, study length 104 weeks): 188 mg/kg/day
TD50 (mouse, strain B6C3F1, females, inhaled, site: liver, lesion: hepatocellular carcinoma, dosed 103 weeks, study length 104 weeks): 200 mg/kg/day
TD50 (mouse, strain B6C3F1, males, by gavage, site: any site (literature study), lesion: several types, types named in the paper, dosed 78 weeks, study length 90 weeks): 160 mg/kg/day
TD50 (mouse, strain B6C3F1, males, by gavage, site: liver, lesion: hepatocellular adenoma + hepatocellular carcinoma + neoplastic nodule, dosed 78 weeks, study length 90 weeks): 123 mg/kg/day
TD50 (mouse, strain B6C3F1, males, by gavage, site: liver, lesion: hepatocellular carcinoma, dosed 78 weeks, study length 90 weeks): 123 mg/kg/day
TD50 (mouse, strain B6C3F1, males, inhaled, site: any site (literature study), lesion: several types, types named in the paper, dosed 103 weeks, study length 104 weeks): 225 mg/kg/day
TD50 (mouse, strain B6C3F1, males, inhaled, site: liver, lesion: hepatocellular adenoma + hepatocellular carcinoma + neoplastic nodule, dosed 103 weeks, study length 104 weeks): 190 mg/kg/day
TD50 (mouse, strain B6C3F1, males, inhaled, site: liver, lesion: hepatocellular adenoma + hepatocellular carcinoma, dosed 103 weeks, study length 104 weeks): 190 mg/kg/day
TD50 (mouse, strain B6C3F1, males, inhaled, site: liver, lesion: hepatocellular adenoma, dosed 103 weeks, study length 104 weeks): 668 mg/kg/day
TD50 (mouse, strain B6C3F1, males, inhaled, site: liver, lesion: hepatocellular carcinoma, dosed 103 weeks, study length 104 weeks): 162 mg/kg/day
TD50 (mouse, strain B6C3F1, males, inhaled, site: lung, lesion: alveolar/bronchiolar adenoma + alveolar/bronchiolar carcinoma, dosed 103 weeks, study length 104 weeks): 6050 mg/kg/day
TD50 (mouse, strain B6C3F1, males, inhaled, site: mesenteric lymph node + multiple organs + spleen + subcutaneous tissue, lesion: malignant lymphoma, NOS, dosed 103 weeks, study length 104 weeks): 681 mg/kg/day
TD50 (mouse, strain Crj:BDF1, females, inhaled, site: liver, lesion: hepatocellular adenoma, dosed 104 weeks, study length 104 weeks): 560 mg/kg/day
TD50 (mouse, strain Crj:BDF1, females, inhaled, site: liver, lesion: hepatocellular carcinoma, dosed 104 weeks, study length 104 weeks): 1420 mg/kg/day
TD50 (mouse, strain Crj:BDF1, females, inhaled, site: liver, lesion: several types, types named in the paper, dosed 104 weeks, study length 104 weeks): 396 mg/kg/day
TD50 (mouse, strain Crj:BDF1, males, inhaled, site: Harderian gland, lesion: adenoma, dosed 104 weeks, study length 104 weeks): 2330 mg/kg/day
TD50 (mouse, strain Crj:BDF1, males, inhaled, site: liver, lesion: hepatocellular adenoma, dosed 104 weeks, study length 104 weeks): 602 mg/kg/day
TD50 (mouse, strain Crj:BDF1, males, inhaled, site: liver, lesion: hepatocellular carcinoma, dosed 104 weeks, study length 104 weeks): 555 mg/kg/day
TD50 (mouse, strain Crj:BDF1, males, inhaled, site: liver, lesion: several types, types named in the paper, dosed 104 weeks, study length 104 weeks): 257 mg/kg/day
TD50 (rat, strain F344/DuCrj, females, inhaled, site: spleen, lesion: mononuclear-cell leukemia, dosed 104 weeks, study length 104 weeks): 1080 mg/kg/day
TD50 (rat, strain F344/DuCrj, males, inhaled, site: liver, lesion: hepatocellular adenoma, dosed 104 weeks, study length 104 weeks): 28300 mg/kg/day
TD50 (rat, strain F344/DuCrj, males, inhaled, site: spleen, lesion: mononuclear-cell leukemia, dosed 104 weeks, study length 104 weeks): 257 mg/kg/day
TD50 (rat, strain Fischer 344, females, inhaled, site: any site (literature study), lesion: several types, types named in the paper, dosed 103 weeks, study length 104 weeks): 869 mg/kg/day
TD50 (rat, strain Fischer 344, females, inhaled, site: multiple organs + spleen, lesion: mononuclear-cell leukemia, dosed 103 weeks, study length 104 weeks): 287 mg/kg/day
TD50 (rat, strain Fischer 344, males, inhaled, site: any site (literature study), lesion: several types, types named in the paper, dosed 103 weeks, study length 104 weeks): 77.7 mg/kg/day
TD50 (rat, strain Fischer 344, males, inhaled, site: kidney + liver + multiple organs + spleen, lesion: tubular-cell adenoma + tubular-cell adenocarcinoma + mononuclear-cell leukemia, dosed 103 weeks, study length 104 weeks): 90.8 mg/kg/day
TD50 (rat, strain Fischer 344, males, inhaled, site: kidney, lesion: tubular-cell adenoma + tubular-cell adenocarcinoma, dosed 103 weeks, study length 104 weeks): 504 mg/kg/day
TD50 (rat, strain Fischer 344, males, inhaled, site: liver + multiple organs + spleen, lesion: mononuclear-cell leukemia, dosed 103 weeks, study length 104 weeks): 101 mg/kg/day
TD50 (rat, strain Fischer 344, males, inhaled, site: liver, lesion: hepatocellular adenoma + hepatocellular carcinoma + neoplastic nodule, dosed 103 weeks, study length 104 weeks): 368 mg/kg/day
TD50 (rat, strain Fischer 344, males, inhaled, site: testis, lesion: interstitial-cell tumor, dosed 103 weeks, study length 104 weeks): 68.6 mg/kg/day
TD50 (rat, strain Osborne-Mendel, females, by gavage, site: any site (literature study), lesion: several types, types named in the paper, dosed 78 weeks, study length 110 weeks): 1710 mg/kg/day
TD50 (rat, strain Osborne-Mendel, males, by gavage, site: any site (literature study), lesion: several types, types named in the paper, dosed 78 weeks, study length 112 weeks): 3020 mg/kg/day

ClCc1ccccn1
TD50 (mouse, strain B6C3F1, females, by gavage, site: any site (literature study), lesion: several types, types named in the paper, dosed 99 weeks, study length 104 weeks): 9790 mg/kg/day (inactive)
TD50 (mouse, strain B6C3F1, females, by gavage, site: lung, lesion: alveolar/bronchiolar adenoma + alveolar/bronchiolar carcinoma, dosed 99 weeks, study length 104 weeks): 2170 mg/kg/day
carcinogen call (mouse, strain B6C3F1, males, by gavage, site: any site (literature study), lesion: several types, types named in the paper, dosed 99 weeks, study length 104 weeks): negative (inactive)
TD50 (mouse, strain B6C3F1, males, by gavage, site: lung, lesion: alveolar/bronchiolar adenoma + alveolar/bronchiolar carcinoma, dosed 99 weeks, study length 104 weeks): 2940 mg/kg/day
TD50 (rat, strain Fischer 344, females, by gavage, site: any site (literature study), lesion: several types, types named in the paper, dosed 99 weeks, study length 105 weeks): 114 mg/kg/day (inactive)
TD50 (rat, strain Fischer 344, males, by gavage, site: any site (literature study), lesion: several types, types named in the paper, dosed 99 weeks, study length 105 weeks): 671 mg/kg/day
TD50 (rat, strain Fischer 344, males, by gavage, site: subcutaneous tissue, lesion: fibroma, dosed 99 weeks, study length 105 weeks): 515 mg/kg/day (inactive)

[Cl][Hg]
carcinogen call (mouse, strain BALB/c, males, in feed, site: liver, lesion: one or several types, types not named, dosed 60 weeks, study length 104 weeks): negative (inactive)
carcinogen call (mouse, strain BALB/c, males, in feed, site: lung, lesion: one or several types, types not named, dosed 60 weeks, study length 104 weeks): negative (inactive)
